Tests used:
Oryctolagus cuniculus = organism: Oryctolagus cuniculus; assay: Inhibition of rabbit platelet rich plasma aggregation induced by 500 uM of arachidonic acid; format: functional
Rattus norvegicus [1] = organism: Rattus norvegicus; assay: Inhibitory activity against rat thoracic aorta contraction induced by 30 nM U-46619; format: functional
Rattus norvegicus [2] = organism: Rattus norvegicus; assay: Inhibition of rat washed platelet aggregation induced by 4 ug/mL of collagen; format: functional
Homo sapiens [3] = organism: Homo sapiens; assay: The synthesis of cyclooxygenase or lipoxygenase derived products (HHT and HETE) in human washed platelets at dose of 20 uM; format: functional, organism-based
Homo sapiens [4] = organism: Homo sapiens; assay: Effect on the synthesis of Thromboxane A2 at dose of 20 uM; format: functional, organism-based
Homo sapiens [5] = organism: Homo sapiens; assay: Effect on the synthesis of metabolites of arachidonic acid in human platelets; format: functional
Homo sapiens [6] = organism: Homo sapiens; assay: Effect on cyclooxygenase or lipoxygenase derived products (HHT and HETE) in human washed platelets at a dose of 10 uM as percent of radioactivity recovered; format: functional
Homo sapiens [7] = organism: Homo sapiens; assay: Effect on the synthesis of metabolites of arachidonic acid in human platelets at dose of 10 uM expressed as percent of radioactivity recovered; format: functional
Homo sapiens [8] = organism: Homo sapiens; assay: Effect on the synthesis of metabolites of arachidonic acid in human platelets at a dose of 1 uM; format: functional
Homo sapiens [9] = organism: Homo sapiens; assay: Effect on cyclooxygenase or lipoxygenase derived products(HHT and HETE) in human washed platelets at dose of 1 uM expressed as percent of radioactivity recovered; format: functional
[10] = target: T1, Thromboxane-A synthase (Homo sapiens) (UniProt P24557); assay: Inhibition of thromboxane A2 synthetase from human platelets by 10 uM expressed as percent of radioactivity recovered
T1 sequence (whole entry): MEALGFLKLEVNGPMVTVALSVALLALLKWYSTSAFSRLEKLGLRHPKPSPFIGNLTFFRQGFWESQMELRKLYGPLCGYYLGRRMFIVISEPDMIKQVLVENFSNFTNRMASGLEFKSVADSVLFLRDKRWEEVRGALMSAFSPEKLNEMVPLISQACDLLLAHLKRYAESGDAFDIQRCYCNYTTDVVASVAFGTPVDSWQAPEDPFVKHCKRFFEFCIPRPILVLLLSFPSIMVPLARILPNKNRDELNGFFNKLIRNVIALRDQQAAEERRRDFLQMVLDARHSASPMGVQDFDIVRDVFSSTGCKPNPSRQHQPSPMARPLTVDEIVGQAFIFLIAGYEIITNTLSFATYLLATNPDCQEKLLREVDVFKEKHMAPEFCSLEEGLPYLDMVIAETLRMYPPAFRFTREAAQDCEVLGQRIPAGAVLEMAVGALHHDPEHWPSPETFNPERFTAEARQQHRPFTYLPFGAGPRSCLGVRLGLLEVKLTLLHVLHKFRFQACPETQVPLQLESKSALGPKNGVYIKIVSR

Homo sapiens [11] = organism: Homo sapiens; assay: The synthesis of cyclooxygenase or lipoxygenase derived products (HHT and HETE) in human washed platelets; format: functional
Homo sapiens [12] = organism: Homo sapiens; assay: Effect on the synthesis of Thromboxane A2; format: functional, organism-based
[13] = Rattus norvegicus, Thoracic aorta

Row | IC50 (Oryctolagus cuniculus; Oryctolagus cuniculus, Plasma) | IC50 (Rattus norvegicus [1]; [13]) | IC50 (Rattus norvegicus [2]; Rattus norvegicus) | Compound | further results
1 | 13.3 µM | 0.0172 µM | 0.019 µM | CCCCCCS(=O)(=O)N[C@H]1C2CC[C@H](C2)[C@@H]1C/C=C\CCCC(=O)O | 
2 | 0.5 µM |  | 0.004 µM | O=C(O)CCC/C=C\C[C@H]1[C@@H]2CCC(C2)[C@@H]1NS(=O)(=O)c1ccc(O)cc1 | 
3 |  |  |  | O=C(O)CCC/C=C\C[C@H]1[C@@H]2CCC(C2)[C@@H]1NS(=O)(=O)c1ccccc1 (single isomer, unassigned; (-)) | IC50 (Oryctolagus cuniculus): 7.4 µM; IC50 (Rattus norvegicus [1]): 0.0153 µM; IC50 (Rattus norvegicus [2]): 0.0134 µM
4 | 4.6 µM | 0.0015 µM | 0.0033 µM | CCc1ccc(S(=O)(=O)N[C@H]2C3CC[C@H](C3)[C@@H]2C/C=C\CCCC(=O)O)cc1 | 
5 |  |  |  | O=C(O)CCC/C=C\C[C@H]1[C@@H]2CCC(C2)[C@@H]1NS(=O)(=O)c1ccccc1 (single isomer, unassigned; (+)) | IC50 (Oryctolagus cuniculus): 0.6 µM; IC50 (Rattus norvegicus [1]): 0.00049 µM; IC50 (Rattus norvegicus [2]): 0.0018 µM
6 | 1.7 µM | 0.0032 µM | 0.0056 µM | Cc1cccc(S(=O)(=O)N[C@H]2C3CC[C@H](C3)[C@@H]2C/C=C\CCCC(=O)O)c1 | 
7 | > 800 µM | 3.41 µM | 0.45 µM | O=C(O)CCC/C=C\C[C@H]1[C@@H]2CCC(C2)[C@@H]1NC(=O)c1ccccc1 | 
8 | 1.4 µM |  | 0.0089 µM | O=C(O)CCC/C=C\C[C@H]1[C@@H]2CCC(C2)[C@@H]1NS(=O)(=O)c1ccc([N+](=O)[O-])cc1 | 
9 | 0.6 µM |  | 0.0029 µM | O=C(O)CCC/C=C\C[C@H]1[C@@H]2CCC(C2)[C@@H]1NS(=O)(=O)c1ccc(F)cc1 | 
10 | 9 µM | 0.0145 µM | 0.003 µM | O=C(O)CCC/C=C\C[C@@H]1[C@H](CNNC(=O)Nc2ccccc2)[C@H]2CC[C@H]1O2 | 
11 | 113 µM | 0.111 µM | 0.026 µM | O=C(O)CCC/C=C\C[C@H]1[C@@H]2CCC(C2)[C@@H]1NS(=O)(=O)Cc1ccccc1 | 
12 |  |  |  | COc1ccc2c(c1)c(CC(=O)O)c(C)n2C(=O)c1ccc(Cl)cc1 | Recovery (Homo sapiens [3]): 15%; Recovery (Homo sapiens [4]): 0.34%; Recovery (Homo sapiens [5]): 28.4%
13 | 1.1 µM | 0.0027 µM | 0.0027 µM | O=C(O)CCC/C=C\C[C@H]1[C@@H]2CCC(C2)[C@@H]1NS(=O)(=O)c1cccc2ccccc12 | 
14 |  |  |  | O=C(O)CCC/C=C\C[C@H]1[C@@H]2CCC(C2)[C@@H]1NS(=O)(=O)c1ccccc1 (stereo in doubt; 14a) [listing 1 of 2 here] | Recovery (Homo sapiens [6]): 23.2%; Recovery (Homo sapiens [7]): 14.2%; Recovery (Homo sapiens [8]): 14.3%; Recovery (Homo sapiens [9]): 24%; Recovery [10]: 2.1%
15 |  |  |  | O=C(O)c1ccc(OCCn2ccnc2)cc1 | Recovery (Homo sapiens [11]): 19.3%; Recovery (Homo sapiens [5]): 11.8%; Recovery (Homo sapiens [12]): 0.74%
16 | 7.1 µM |  | 0.052 µM | CN(C)c1ccc(S(=O)(=O)N[C@H]2C3CC[C@H](C3)[C@@H]2C/C=C\CCCC(=O)O)cc1 | 
17 | 0.5 µM | 0.0007 µM | 0.0024 µM | Cc1ccc(S(=O)(=O)N[C@H]2C3CC[C@H](C3)[C@@H]2C/C=C\CCCC(=O)O)cc1 | 
18 | 14 µM | 0.0109 µM | 0.0109 µM | O=C(O)CCC/C=C\C[C@H]1[C@@H]2CCC(C2)[C@@H]1NS(=O)(=O)CCCc1ccccc1 | 
19 | 640 µM | 1.58 µM | 0.37 µM | CS(=O)(=O)N[C@H]1C2CC[C@H](C2)[C@@H]1C/C=C\CCCC(=O)O | 
20 |  |  |  | O=C(O)CCC/C=C\C[C@H]1[C@@H]2CCC(C2)[C@@H]1NS(=O)(=O)c1ccccc1 (stereo in doubt; 14a) [listing 2 of 2 here] | IC50 (Rattus norvegicus [1]): 0.0014 µM; IC50 (Rattus norvegicus [2]): 0.0029 µM
21 | 6.2 µM | 0.0037 µM | 0.0043 µM | Cc1ccccc1S(=O)(=O)N[C@H]1C2CC[C@H](C2)[C@@H]1C/C=C\CCCC(=O)O | 
22 | 800 µM |  | > 1 µM | O=C(O)CCC/C=C\C[C@H]1[C@@H]2CCC(C2)[C@@H]1NS(=O)(=O)c1ccc(C(=O)O)cc1 | 
23 | 0.3 µM |  | 0.0029 µM | O=C(O)CCC/C=C\C[C@H]1[C@@H]2CCC(C2)[C@@H]1NS(=O)(=O)c1ccc(Cl)cc1 | 
24 | 200 µM | 0.0098 µM | 0.006 µM | O=C(O)CCC/C=C\C[C@H]1[C@@H]2CCC(C2)[C@@H]1NS(=O)(=O)c1ccc(-c2ccccc2)cc1 | 
25 | 8.2 µM | 0.0034 µM | 0.0037 µM | O=C(O)CCC/C=C\C[C@H]1[C@@H]2CCC(C2)[C@@H]1NS(=O)(=O)CCc1ccccc1 | 
26 | 1.7 µM |  | 0.0039 µM | COc1ccc(S(=O)(=O)N[C@H]2C3CC[C@H](C3)[C@@H]2C/C=C\CCCC(=O)O)cc1 | 
27 | 800 µM |  | 0.0145 µM | CCCCCc1ccc(S(=O)(=O)N[C@H]2C3CC[C@H](C3)[C@@H]2C/C=C\CCCC(=O)O)cc1 | 
